Species on record: Rattus norvegicus
Test: DrugMatrix - Regimen: Daily Repeat
Format: toxicity, organism-based, Sprague-Dawley
Parameters: regimen Daily Repeat, gender Male, age 6-8 weeks
Settings: in vivo, sc, route subcutaneous, […]; for ABSOLUTE BASOPHIL / ABSOLUTE EOSINOPHIL / ABSOLUTE LYMPHOCYTE / ABSOLUTE MONOCYTE / ABSOLUTE SEGMENTED NEUTROPHIL / BASOPHIL / EOSINOPHIL / ERYTHROCYTE COUNT / HEMATOCRIT / HEMOGLOBIN / LEUKOCYTE COUNT / LYMPHOCYTE / MEAN CORPUSCULAR HEMOGLOBIN / MEAN CORPUSCULAR HEMOGLOBIN CONCENTRATION / MEAN CORPUSCULAR VOLUME / MONOCYTE / NEUTROPHIL / NUCLEATED RED BLOOD CELLS / PLATELET COUNT: tissue Blood; for ALANINE AMINOTRANSFERASE / ALBUMIN / ALKALINE PHOSPHATASE / ASPARTATE AMINOTRANSFERASE / BLOOD UREA NITROGEN / CARBON DIOXIDE / CHLORIDE / CHOLESTEROL / CREATINE PHOSPHOKINASE / CREATININE / GLUCOSE / LACTATE DEHYDROGENASE / LIPASE / PHOSPHORUS / POTASSIUM / SODIUM / TOTAL BILIRUBIN / TOTAL PROTEIN / URIC ACID: tissue Plasma
[1] = 50 mg/kg, 120 h, dose level Low, time 5 day
[2] = 150 mg/kg, 72 h, dose level M2, time 3 day
[3] = 150 mg/kg, 120 h, dose level M2, time 5 day

SMILES: CC(C)(c1ccc(O)cc1)c1ccc(O)cc1 [BISPHENOL A]
- ABSOLUTE BASOPHIL [1]: 0 CELLS/uL
- ABSOLUTE EOSINOPHIL [1]: 0 CELLS/uL
- ABSOLUTE LYMPHOCYTE [1]: 15258.67 CELLS/uL
- ABSOLUTE MONOCYTE [1]: 508.33 CELLS/uL
- ABSOLUTE SEGMENTED NEUTROPHIL [1]: 1433 CELLS/uL
- BASOPHIL [1]: 0%
- EOSINOPHIL [1]: 0%
- ERYTHROCYTE COUNT [1]: 5.65 x10E6/uL
- HEMATOCRIT [1]: 35.13%
- HEMOGLOBIN [1]: 13.73 G/DL
- LEUKOCYTE COUNT [1]: 17.2 x10E3/uL
- LYMPHOCYTE [1]: 89%
- MEAN CORPUSCULAR HEMOGLOBIN [1]: 24.33 pg
- MEAN CORPUSCULAR HEMOGLOBIN CONCENTRATION [1]: 39.07 G/DL
- MEAN CORPUSCULAR VOLUME [1]: 62.23 fL
- MONOCYTE [1]: 2.33%
- NEUTROPHIL [1]: 8.67%
- NUCLEATED RED BLOOD CELLS [1]: 0 /100WBC
- PLATELET COUNT [1]: 1289 x10E3/uL
- ALANINE AMINOTRANSFERASE [1]: 62.67 u/L
- ALBUMIN [1]: 3.57 G/DL
- ALKALINE PHOSPHATASE [1]: 300 u/L
- ASPARTATE AMINOTRANSFERASE [1]: 93 u/L
- BLOOD UREA NITROGEN [1]: 14.67 mg/dL
- CARBON DIOXIDE [1]: 24 mmol/L
- CHLORIDE [1]: 103.67 MEQ/L
- CHOLESTEROL [1]: 48.67 mg/dL
- CREATINE PHOSPHOKINASE [1]: 675.67 u/L
- CREATININE [1]: 0.15 mg/dL
- GLUCOSE [1]: 190.67 mg/dL
- LACTATE DEHYDROGENASE [1]: 256.67 u/L
- LIPASE [1]: 11.67 u/L
- PHOSPHORUS [1]: 13.4 mg/dL
- POTASSIUM [1]: 6.14 MEQ/L
- SODIUM [1]: 142.27 MEQ/L
- TOTAL BILIRUBIN [1]: 0.1 mg/dL
- TOTAL PROTEIN [1]: 5.27 G/DL
- URIC ACID [1]: 2.23 mg/dL
- ABSOLUTE BASOPHIL [2]: 0 CELLS/uL
- ABSOLUTE EOSINOPHIL [2]: 21 CELLS/uL
- ABSOLUTE LYMPHOCYTE [2]: 7705 CELLS/uL
- ABSOLUTE MONOCYTE [2]: 0 CELLS/uL
- ABSOLUTE SEGMENTED NEUTROPHIL [2]: 574 CELLS/uL
- BASOPHIL [2]: 0%
- EOSINOPHIL [2]: 0.33%
- ERYTHROCYTE COUNT [2]: 5.46 x10E6/uL
- HEMATOCRIT [2]: 34.77%
- HEMOGLOBIN [2]: 13.53 G/DL
- LEUKOCYTE COUNT [2]: 8.3 x10E3/uL
- LYMPHOCYTE [2]: 92.33%
- MEAN CORPUSCULAR HEMOGLOBIN [2]: 24.8 pg
- MEAN CORPUSCULAR HEMOGLOBIN CONCENTRATION [2]: 38.97 G/DL
- MEAN CORPUSCULAR VOLUME [2]: 63.67 fL
- MONOCYTE [2]: 0%
- NEUTROPHIL [2]: 7.33%
- NUCLEATED RED BLOOD CELLS [2]: 0 /100WBC
- PLATELET COUNT [2]: 1030 x10E3/uL
- ALANINE AMINOTRANSFERASE [2]: 54.67 u/L
- ALBUMIN [2]: 3.73 G/DL
- ALKALINE PHOSPHATASE [2]: 286.67 u/L
- ASPARTATE AMINOTRANSFERASE [2]: 73 u/L
- BLOOD UREA NITROGEN [2]: 9.33 mg/dL
- CARBON DIOXIDE [2]: 21 mmol/L
- CHLORIDE [2]: 96 MEQ/L
- CHOLESTEROL [2]: 72.67 mg/dL
- CREATINE PHOSPHOKINASE [2]: 254.33 u/L
- CREATININE [2]: 0.11 mg/dL
- GLUCOSE [2]: 143 mg/dL
- LACTATE DEHYDROGENASE [2]: 106.33 u/L
- LIPASE [2]: 8 u/L
- PHOSPHORUS [2]: 11.83 mg/dL
- POTASSIUM [2]: 5.68 MEQ/L
- SODIUM [2]: 141.4 MEQ/L
- TOTAL BILIRUBIN [2]: 0.1 mg/dL
- TOTAL PROTEIN [2]: 5.57 G/DL
- URIC ACID [2]: 0.53 mg/dL
- ABSOLUTE BASOPHIL [3]: 0 CELLS/uL
- ABSOLUTE EOSINOPHIL [3]: 91.33 CELLS/uL
- ABSOLUTE LYMPHOCYTE [3]: 12830 CELLS/uL
- ABSOLUTE MONOCYTE [3]: 122 CELLS/uL
- ABSOLUTE SEGMENTED NEUTROPHIL [3]: 2190 CELLS/uL
- BASOPHIL [3]: 0%
- EOSINOPHIL [3]: 0.67%
- ERYTHROCYTE COUNT [3]: 5.93 x10E6/uL
- HEMATOCRIT [3]: 36.47%
- HEMOGLOBIN [3]: 14.23 G/DL
- LEUKOCYTE COUNT [3]: 15.23 x10E3/uL
- LYMPHOCYTE [3]: 85%
- MEAN CORPUSCULAR HEMOGLOBIN [3]: 24.1 pg
- MEAN CORPUSCULAR HEMOGLOBIN CONCENTRATION [3]: 39.03 G/DL
- MEAN CORPUSCULAR VOLUME [3]: 61.63 fL
- MONOCYTE [3]: 0.67%
- NEUTROPHIL [3]: 13.67%
- NUCLEATED RED BLOOD CELLS [3]: 0.33 /100WBC
- PLATELET COUNT [3]: 1323.33 x10E3/uL
- ALANINE AMINOTRANSFERASE [3]: 59 u/L
- ALBUMIN [3]: 3.77 G/DL
- ALKALINE PHOSPHATASE [3]: 246.33 u/L
- ASPARTATE AMINOTRANSFERASE [3]: 81.67 u/L
- BLOOD UREA NITROGEN [3]: 13.33 mg/dL
- CARBON DIOXIDE [3]: 25.67 mmol/L
- CHLORIDE [3]: 102.67 MEQ/L
- CHOLESTEROL [3]: 61.67 mg/dL
- CREATINE PHOSPHOKINASE [3]: 253 u/L
- CREATININE [3]: 0.21 mg/dL
- GLUCOSE [3]: 193 mg/dL
- LACTATE DEHYDROGENASE [3]: 151.67 u/L
- LIPASE [3]: 10 u/L
- PHOSPHORUS [3]: 13.27 mg/dL
- POTASSIUM [3]: 5.91 MEQ/L
- SODIUM [3]: 142.47 MEQ/L
- TOTAL BILIRUBIN [3]: 0.13 mg/dL
- TOTAL PROTEIN [3]: 5.57 G/DL
- URIC ACID [3]: 2.37 mg/dL

Source: ChEMBL document CHEMBL3885881, “DrugMatrix”
